Experimental data: PMC12670405, “Second-Generation AURKA-Targeting PROTACs: Structural Optimization toward in Vivo Degradation in Neuroblastoma” (Journal of Medicinal Chemistry, 2025)

How the values were obtained:
Experiment in all cases: LC-MS/MS proteome profiling
Assay type in all cases: cell-based, Homo sapiens
JRKL = tested on: JRKL; design: key to Significant (3h SK5527vs3h DMSO) FDR0 05 / Significant (24h SK5527vs24h DMSO) FDR0 05: +: Statistical significance for differential regulation was set to a false discovery rate (FDR) of < 0.05 and |log2FC| = 2
Procedure: (§1) IMR-32 cells were seeded in T-25 flasks at a density of 1.7 million cells/flask and treated the next day with DMSO (negative control), SK5527 (500 nM) or MK-5108 (500 nM) for 3 or 24 h (data for MK-5108 not discussed in this manuscript). Cell pellets were harvested at the respective time points, lysed, and the concentration of the obtained protein lysates measured as previously described. Details on further sample preparation, LC–MS/MS, and data analysis can be found in the Supporting Information. The LC–MS/MS proteomics data have been deposited to the ProteomeXchange Consortium via the PRIDE partner repository with the data set identifier PXD061539.
(§2) Supplementary Methods 1 – LC-MS/MS proteomics
(§3) From each sample, 100 µg of protein was isolated, the volumes were equalized with water and SDS and TEAB were added to a final concentration of 5% and 50 mM, respectively. Proteins were reduced and alkylated by addition of 10 mM Tris(2-carboxyethyl)phosphine hydrochloride and 40 mM chloroacetamide and incubation for 30 minutes at 25°C in the dark. Phosphoric acid was added to a final concentration of 1.2%, and samples were subsequently diluted 7-fold with binding buffer containing 90% methanol in 100 mM TEAB, pH 7.55. The samples were loaded on the 96-well S-Trap™ plate (Protifi), placed on top of a deepwell plate, and centrifuged for 2 min at 1,500 x g at RT. After protein binding, the S-trap™ plate was washed three times by adding 200 µl binding buffer and centrifugation for 2 min at 1,500 x g at RT. A new deepwell receiver plate was placed below the 96-well S-Trap™ plate and 50 mM TEAB containing trypsin (1/100, w/w) was added for digestion overnight at 37°C.
(§4) Using centrifugation for 2 min at 1,500 x g, peptides were eluted in three steps, first with 80 µl 50 mM TEAB, then with 80 µl 0.2% formic acid (FA) in water and finally with 80 µl 0.2% FA in water/acetonitrile (ACN) (50/50, v/v). Eluted peptides were dried completely by vacuum centrifugation.
(§5) Peptides were re-dissolved in 20 µl loading solvent A (0.1% trifluoroacetic acid in water/acetonitrile (ACN) (99.5:0.5, v/v)) of which 2 µl of sample was injected for LC-MS/MS analysis on an Ultimate 3000 ProFlow nanoLC system in-line connected to a Orbitrap Exploris 240 mass spectrometer (Thermo) equipped with pneu-Nimbus dual ion source (Phoenix S&T). Trapping was performed at 20 μl/min for 2 min in loading solvent A on a PepMap™ Neo Trap column (Thermo scientific, 300 μm internal diameter (I.D.), 5 μm beads). The peptides were separated on a 250 mm Odyssey Ultimate, 1.7µm C18, 75 µm inner diameter (Ionopticks) kept at a constant temperature of 45°C. Peptides were eluted by a gradient reaching 26,4 % MS solvent B (0.1% FA in acetonitrile) after 80 min, 44% MS solvent B at 95 min, 56% MS solvent B at 100min followed by a 5-minutes wash at 56% MS solvent B and re-equilibration with MS solvent A (0.1% FA in water). The flow rate was set to 250 nl/min. The mass spectrometer was operated in data-independent mode, automatically switching between MS and MS/MS acquisition. Full-scan MS spectra ranging from 375-1500 m/z with a normalized target value of 300%, a maximum fill time of 25 ms and a resolution at of 60,000 were followed by 30 quadrupole isolations with a precursor isolation width of 10 m/z for HCD fragmentation at an NCE of 30% after filling the trap at a normalized target value of 2000% for maximum injection time of 45 ms. MS2 spectra were acquired at a resolution of 15,000 with a scan range of 200-1800 m/z in the Orbitrap analyser without multiplexing. The isolation intervals were set from 400 – 900 m/z with a width of 10 m/z using window placement optimization. The polydimethylcyclosiloxane background ion at 445.120028 Da was used for internal calibration (lock mass) and QCloud has been used to control instrument longitudinal performance during the project.
(§6) Analysis of the mass spectrometry data was performed in DiaNN (version 1.9). Precursor false discovery rate was […]
(§7) set at 1%. […]

IMR-32 proteome = tested on: IMR-32 proteome
Procedure: as §1, §2
as §3, with “After protein binding, the S-trap™ plate was washed three times by adding 200 µl binding buffer and centrifugation for 2 min at 1,500 x g at RT. A new deepwell receiver plate was placed below the 96-well S-Trap™ plate and 50 mM TEAB containing trypsin (1/100, w/w) was added for digestion overnight at 37°C.” left out

PLK1 = tested on: PLK1; design: key to Significant (24h SK5527vs24h DMSO) FDR0 05: +: Statistical significance for differential regulation was set to a false discovery rate (FDR) of < 0.05 and |log2FC| = 2
Procedure: as §1, §2, §3, §4, §5, §6, §7

CKAP2 = tested on: CKAP2; design: key to Significant (24h SK5527vs24h DMSO) FDR0 05: +: Statistical significance for differential regulation was set to a false discovery rate (FDR) of < 0.05 and |log2FC| = 2
Procedure: as §1, §2, §3, §4, §5, §6, §7

ZNF660 = tested on: ZNF660; design: key to Significant (24h SK5527vs24h DMSO) FDR0 05: +: Statistical significance for differential regulation was set to a false discovery rate (FDR) of < 0.05 and |log2FC| = 2
Procedure: as §1, §2, §3, §4, §5, §6, §7

Cc1cc(Nc2ccc(F)c(CC3(C(=O)N4CCC(F)(CN5CCN(c6ccc(N7CCC(=O)NC7=O)cn6)CC5)CC4)CCN(Cc4cccc(Cl)c4F)CC3)n2)n[nH]1 [SK5527]
Significant (3h SK5527vs3h DMSO) FDR0 05 (JRKL; IMR-32, 3h): +
logFC (3h SK5527vs3h DMSO) (JRKL; IMR-32, 3h): 5.38
Significant (24h SK5527vs24h DMSO) FDR0 05 (JRKL; IMR-32, 24h): +
logFC (24h SK5527vs24h DMSO) (JRKL; IMR-32, 24h): 3.68
logFC JRKL (JRKL; SK5527 vs DMSO (3h)): 5.38
logFC JRKL (JRKL; SK5527 vs DMSO (24h)): 3.68
CRBN neosubstrates (GSPT1, CSNK1A1, ZFP91, SALL4, ZNF654, ZNF787, E4F1, PATZ1) (in words) (IMR-32 proteome; IMR-32): not significantly downregulated
degradation selectivity profile (in words) (IMR-32 proteome; IMR-32, 3h of treatment): AURKA as the only significantly downregulated protein
logFC (3h SK5527vs3h DMSO) (PLK1; IMR-32, 3h): 0.31
Significant (24h SK5527vs24h DMSO) FDR0 05 (PLK1; IMR-32, 24h): +
logFC (24h SK5527vs24h DMSO) (PLK1; IMR-32, 24h): 2.19
logFC PLK1 (PLK1; SK5527 vs DMSO (24h)): 2.19
logFC (3h SK5527vs3h DMSO) (CKAP2; IMR-32, 3h): 0.32
Significant (24h SK5527vs24h DMSO) FDR0 05 (CKAP2; IMR-32, 24h): +
logFC (24h SK5527vs24h DMSO) (CKAP2; IMR-32, 24h): 2.1
logFC CKAP2 (CKAP2; SK5527 vs DMSO (24h)): 2.1
logFC (3h SK5527vs3h DMSO) (ZNF660; IMR-32, 3h): -0.15
Significant (24h SK5527vs24h DMSO) FDR0 05 (ZNF660; IMR-32, 24h): +
logFC (24h SK5527vs24h DMSO) (ZNF660; IMR-32, 24h): -2.02
logFC ZNF660 (ZNF660; SK5527 vs DMSO (24h)): -2.02
